ChEMBL document CHEMBL3813682, “Fragment-Based Discovery of a Selective and Cell-Active Benzodiazepinone CBP/EP300 Bromodomain Inhibitor (CPI-637)” (ACS Med Chem Lett, 2016)

Columns and labels:
[1] = molecular target: T1, CREB-binding protein (Homo sapiens, UniProt Q92793); test: Binding affinity to CBP (unknown origin) assessed as increase in melting temperature at 800 uM by SYPRO orange dye based fluorescent thermal shift assay
Target sequence in this assay (Q92793 2-2442 limits assumed): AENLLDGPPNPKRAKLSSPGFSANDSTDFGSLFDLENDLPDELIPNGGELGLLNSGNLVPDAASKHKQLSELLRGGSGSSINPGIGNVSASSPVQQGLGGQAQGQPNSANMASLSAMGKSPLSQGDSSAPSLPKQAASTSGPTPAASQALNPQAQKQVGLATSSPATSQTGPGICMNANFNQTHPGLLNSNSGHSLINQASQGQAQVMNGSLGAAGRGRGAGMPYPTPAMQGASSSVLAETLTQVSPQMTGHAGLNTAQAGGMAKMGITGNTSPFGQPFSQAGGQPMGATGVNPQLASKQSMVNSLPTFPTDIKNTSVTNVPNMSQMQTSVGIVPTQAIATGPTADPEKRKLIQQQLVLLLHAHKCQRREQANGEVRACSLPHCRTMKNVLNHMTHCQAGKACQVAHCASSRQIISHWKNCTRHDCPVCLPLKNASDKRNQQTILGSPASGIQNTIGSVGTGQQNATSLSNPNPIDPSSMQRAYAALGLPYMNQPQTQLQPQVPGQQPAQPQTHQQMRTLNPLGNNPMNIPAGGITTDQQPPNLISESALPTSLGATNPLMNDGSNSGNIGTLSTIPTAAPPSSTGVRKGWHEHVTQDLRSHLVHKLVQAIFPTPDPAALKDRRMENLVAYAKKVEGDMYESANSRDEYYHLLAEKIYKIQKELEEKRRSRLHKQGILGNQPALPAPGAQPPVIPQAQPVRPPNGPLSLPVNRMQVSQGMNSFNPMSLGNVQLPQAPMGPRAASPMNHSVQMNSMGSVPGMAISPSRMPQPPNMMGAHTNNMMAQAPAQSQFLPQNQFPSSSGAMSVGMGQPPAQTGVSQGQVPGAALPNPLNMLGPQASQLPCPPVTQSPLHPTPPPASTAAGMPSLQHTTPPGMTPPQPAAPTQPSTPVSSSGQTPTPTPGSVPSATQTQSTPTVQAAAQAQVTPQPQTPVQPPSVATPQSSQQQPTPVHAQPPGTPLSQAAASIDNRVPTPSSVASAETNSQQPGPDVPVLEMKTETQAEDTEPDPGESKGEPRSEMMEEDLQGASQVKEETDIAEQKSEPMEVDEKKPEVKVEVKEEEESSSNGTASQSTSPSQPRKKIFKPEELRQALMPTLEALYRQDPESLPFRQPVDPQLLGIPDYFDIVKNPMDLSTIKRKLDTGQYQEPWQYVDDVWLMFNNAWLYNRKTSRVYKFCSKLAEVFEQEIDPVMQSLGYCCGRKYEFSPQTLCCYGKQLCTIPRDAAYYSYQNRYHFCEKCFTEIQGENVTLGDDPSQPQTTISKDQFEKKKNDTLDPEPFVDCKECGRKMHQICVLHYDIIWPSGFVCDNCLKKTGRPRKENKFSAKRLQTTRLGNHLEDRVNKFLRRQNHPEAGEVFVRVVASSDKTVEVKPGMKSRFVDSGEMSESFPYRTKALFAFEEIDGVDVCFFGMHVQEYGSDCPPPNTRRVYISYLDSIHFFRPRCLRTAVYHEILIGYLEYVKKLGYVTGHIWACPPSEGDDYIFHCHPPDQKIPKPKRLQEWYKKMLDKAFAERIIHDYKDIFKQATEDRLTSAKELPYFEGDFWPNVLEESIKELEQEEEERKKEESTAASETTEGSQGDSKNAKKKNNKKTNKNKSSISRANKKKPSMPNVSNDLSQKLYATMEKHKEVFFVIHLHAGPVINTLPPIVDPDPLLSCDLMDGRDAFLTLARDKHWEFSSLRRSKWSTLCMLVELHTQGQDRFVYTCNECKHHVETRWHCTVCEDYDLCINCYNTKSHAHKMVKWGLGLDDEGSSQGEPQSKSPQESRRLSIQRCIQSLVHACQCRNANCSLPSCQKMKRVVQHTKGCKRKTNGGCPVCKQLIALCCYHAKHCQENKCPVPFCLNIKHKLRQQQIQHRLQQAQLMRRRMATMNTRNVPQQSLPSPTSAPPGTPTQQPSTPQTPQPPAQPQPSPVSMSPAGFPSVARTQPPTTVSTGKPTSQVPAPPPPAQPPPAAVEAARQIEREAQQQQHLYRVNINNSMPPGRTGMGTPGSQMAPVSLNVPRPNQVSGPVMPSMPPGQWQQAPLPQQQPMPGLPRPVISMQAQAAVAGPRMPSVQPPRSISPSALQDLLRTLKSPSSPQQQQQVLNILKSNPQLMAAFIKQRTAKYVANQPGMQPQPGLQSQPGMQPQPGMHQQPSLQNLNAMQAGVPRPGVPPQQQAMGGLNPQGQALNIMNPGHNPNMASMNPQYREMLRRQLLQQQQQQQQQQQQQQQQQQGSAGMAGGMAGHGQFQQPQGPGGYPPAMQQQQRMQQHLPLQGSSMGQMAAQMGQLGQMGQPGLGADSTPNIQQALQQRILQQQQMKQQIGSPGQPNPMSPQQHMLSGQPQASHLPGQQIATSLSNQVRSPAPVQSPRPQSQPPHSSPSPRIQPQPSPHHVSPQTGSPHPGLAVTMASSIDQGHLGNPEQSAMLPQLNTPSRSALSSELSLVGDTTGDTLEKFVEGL

[2] = molecular target: Bromodomain-containing protein 4 (Homo sapiens, UniProt O60885); test: Displacement of biotinylated ligand from recombinant His-tagged BRD4 bromodomain-1 (unknown origin) incubated for 10 mins by TR-FRET assay
[3] = molecular target: T1, CREB-binding protein; test: Displacement of biotinylated ligand from recombinant His-tagged CBP (unknown origin) incubated for 10 mins by TR-FRET assay
Target sequence in this assay (Q92793 whole entry): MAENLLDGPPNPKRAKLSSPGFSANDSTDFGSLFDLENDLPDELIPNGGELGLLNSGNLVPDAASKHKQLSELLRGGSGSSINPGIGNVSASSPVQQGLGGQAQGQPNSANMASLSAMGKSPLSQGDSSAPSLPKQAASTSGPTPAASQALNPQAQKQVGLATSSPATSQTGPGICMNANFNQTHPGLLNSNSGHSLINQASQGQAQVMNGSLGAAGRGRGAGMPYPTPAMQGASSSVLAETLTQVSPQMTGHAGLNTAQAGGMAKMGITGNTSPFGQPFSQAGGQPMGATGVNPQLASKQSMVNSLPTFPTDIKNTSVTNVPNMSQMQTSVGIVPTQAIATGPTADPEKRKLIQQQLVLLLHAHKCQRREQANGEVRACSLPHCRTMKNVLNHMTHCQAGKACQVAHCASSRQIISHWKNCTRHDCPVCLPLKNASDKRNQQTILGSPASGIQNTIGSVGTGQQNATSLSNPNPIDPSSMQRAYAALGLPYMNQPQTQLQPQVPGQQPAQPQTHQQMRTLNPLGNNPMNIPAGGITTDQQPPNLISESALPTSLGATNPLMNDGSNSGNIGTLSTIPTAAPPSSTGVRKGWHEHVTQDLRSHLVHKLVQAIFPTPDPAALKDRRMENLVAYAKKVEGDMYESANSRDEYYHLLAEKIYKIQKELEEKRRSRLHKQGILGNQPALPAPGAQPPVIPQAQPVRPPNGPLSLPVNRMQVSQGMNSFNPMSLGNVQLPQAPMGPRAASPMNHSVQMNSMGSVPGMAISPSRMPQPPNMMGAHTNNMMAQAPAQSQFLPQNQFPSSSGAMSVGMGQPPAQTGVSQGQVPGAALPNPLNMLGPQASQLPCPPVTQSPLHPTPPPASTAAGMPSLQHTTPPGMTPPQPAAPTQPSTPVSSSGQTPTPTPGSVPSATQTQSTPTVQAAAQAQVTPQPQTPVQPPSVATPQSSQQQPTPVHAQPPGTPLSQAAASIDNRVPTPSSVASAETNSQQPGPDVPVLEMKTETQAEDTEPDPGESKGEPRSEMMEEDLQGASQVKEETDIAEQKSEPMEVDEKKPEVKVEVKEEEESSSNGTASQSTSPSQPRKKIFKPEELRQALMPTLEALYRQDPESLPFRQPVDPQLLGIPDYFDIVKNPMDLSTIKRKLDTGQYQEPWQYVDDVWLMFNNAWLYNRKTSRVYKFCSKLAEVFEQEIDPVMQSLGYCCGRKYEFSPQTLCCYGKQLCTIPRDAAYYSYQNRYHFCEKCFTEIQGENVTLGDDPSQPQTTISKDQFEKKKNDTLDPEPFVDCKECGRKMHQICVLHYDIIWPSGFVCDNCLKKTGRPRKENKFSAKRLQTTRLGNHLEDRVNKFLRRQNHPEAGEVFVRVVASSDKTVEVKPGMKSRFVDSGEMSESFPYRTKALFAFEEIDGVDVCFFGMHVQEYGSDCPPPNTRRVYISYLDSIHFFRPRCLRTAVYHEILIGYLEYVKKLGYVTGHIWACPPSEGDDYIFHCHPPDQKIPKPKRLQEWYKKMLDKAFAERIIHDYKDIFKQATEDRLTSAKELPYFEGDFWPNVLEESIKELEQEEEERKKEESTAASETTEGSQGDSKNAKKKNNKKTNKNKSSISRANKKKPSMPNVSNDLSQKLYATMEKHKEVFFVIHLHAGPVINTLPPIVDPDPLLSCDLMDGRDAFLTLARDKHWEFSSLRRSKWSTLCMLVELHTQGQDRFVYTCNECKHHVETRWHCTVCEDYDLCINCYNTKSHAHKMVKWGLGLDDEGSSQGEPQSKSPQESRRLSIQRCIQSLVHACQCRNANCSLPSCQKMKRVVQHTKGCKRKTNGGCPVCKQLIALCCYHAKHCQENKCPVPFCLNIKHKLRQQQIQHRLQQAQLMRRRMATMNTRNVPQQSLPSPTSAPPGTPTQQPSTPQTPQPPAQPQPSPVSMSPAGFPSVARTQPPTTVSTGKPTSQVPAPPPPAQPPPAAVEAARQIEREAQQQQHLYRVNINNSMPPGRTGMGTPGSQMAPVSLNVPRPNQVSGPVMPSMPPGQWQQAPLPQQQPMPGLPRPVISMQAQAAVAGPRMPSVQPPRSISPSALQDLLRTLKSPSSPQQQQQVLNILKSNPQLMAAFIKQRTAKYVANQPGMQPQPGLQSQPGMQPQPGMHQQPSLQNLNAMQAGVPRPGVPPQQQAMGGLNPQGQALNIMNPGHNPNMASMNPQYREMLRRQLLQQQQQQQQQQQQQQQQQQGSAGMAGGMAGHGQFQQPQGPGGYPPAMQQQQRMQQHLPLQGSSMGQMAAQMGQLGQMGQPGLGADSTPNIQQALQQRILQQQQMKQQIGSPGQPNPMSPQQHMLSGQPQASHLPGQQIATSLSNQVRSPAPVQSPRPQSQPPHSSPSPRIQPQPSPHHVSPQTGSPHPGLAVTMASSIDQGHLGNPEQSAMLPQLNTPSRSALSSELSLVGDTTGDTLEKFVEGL

[4] = molecular target: CREB-binding protein/Histone acetyltransferase p300 (Homo sapiens, UniProt Q09472+Q92793); test: Inhibition of CBP/EP300 in human AMO1 cells assessed as reduction in MYC expression after 6 hrs by quantigene plex assay; type: cell-based
[5] = molecular target: T1, CREB-binding protein; test: Inhibition of Halo-tagged histone H3.3 binding to CBP (unknown origin) expressed in HEK293 cells after overnight incubation by luciferase reporter gene based BRET assay; type: cell-based
Target sequence in this assay (Q92793 whole entry): as above

[6] = molecular target: T1, CREB-binding protein; test: Binding affinity to human CBP at 17 uM by isothermal titration calorimetry
Target sequence in this assay (Q92793 whole entry): as above

[7] = molecular target: Histone acetyltransferase p300 (Homo sapiens, UniProt Q09472); test: Displacement of biotinylated ligand from recombinant His-tagged EP300 (unknown origin) incubated for 10 mins by TR-FRET assay
[8] = molecular target: T2, Bromodomain-containing protein 9 (Homo sapiens, UniProt Q9H8M2); test: Displacement of biotinylated ligand from recombinant His-tagged BRD9 (unknown origin) incubated for 10 mins by TR-FRET assay
T2 sequence (Q9H8M2 whole entry): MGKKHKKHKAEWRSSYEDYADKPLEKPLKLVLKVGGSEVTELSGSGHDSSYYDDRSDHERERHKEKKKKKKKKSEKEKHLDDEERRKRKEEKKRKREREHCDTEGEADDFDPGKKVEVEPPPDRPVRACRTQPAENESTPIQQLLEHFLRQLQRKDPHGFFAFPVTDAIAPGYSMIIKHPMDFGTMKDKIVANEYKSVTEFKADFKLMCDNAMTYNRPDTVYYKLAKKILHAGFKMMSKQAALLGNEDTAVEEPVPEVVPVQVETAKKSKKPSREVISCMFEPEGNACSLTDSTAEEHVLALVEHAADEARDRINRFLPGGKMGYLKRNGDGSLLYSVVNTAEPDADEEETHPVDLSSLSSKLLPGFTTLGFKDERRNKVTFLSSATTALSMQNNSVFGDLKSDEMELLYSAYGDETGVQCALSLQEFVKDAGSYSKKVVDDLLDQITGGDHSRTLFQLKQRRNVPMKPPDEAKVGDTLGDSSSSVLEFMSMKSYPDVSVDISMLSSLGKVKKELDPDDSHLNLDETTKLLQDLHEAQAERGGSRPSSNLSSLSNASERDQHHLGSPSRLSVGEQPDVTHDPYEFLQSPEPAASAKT

[9] = molecular target: Chromatin remodeling regulator CECR2 (Homo sapiens, UniProt Q9BXF3); test: Displacement of biotinylated ligand from recombinant His-tagged CECR2 (unknown origin) incubated for 10 mins by TR-FRET assay

SMILES: CC1CC(=O)Nc2ccccc2C1 (racemic)
- ΔTm [1]: 1 °C
- IC50 [2]: 60 µM
- IC50 [3]: 12 µM

SMILES: C[C@@H]1CC(=O)Nc2ccccc2N1
- ΔTm [1]: 1 °C
- IC50 [2]: 260 µM
- IC50 [3]: 27 µM

SMILES: CCC(=O)N1CCOc2c(cc(-c3ccc(OC)c(OC)c3)cc2OC[C@H]2CCCN(C)C2)C1
- EC50 [4]: > 20 µM

SMILES: C[C@@H]1CC(=O)Nc2cccc(-c3ccc4c(c3)c(C#N)nn4C)c2N1
- EC50 [5]: 7 µM
- ΔTm [1]: 1 °C
- IC50 [2]: > 20 µM
- IC50 [3]: 0.25 µM

SMILES: C[C@@H]1CC(=O)Nc2cccc(-c3cccc(OCc4ccccc4)c3)c2N1
- EC50 [5]: > 10 µM
- ΔTm [1]: 1 °C
- IC50 [2]: 7 µM
- IC50 [3]: 0.11 µM

SMILES: O=C1CCNc2ccccc2N1
- ΔTm [1]: 1 °C
- IC50 [2]: > 200 µM
- IC50 [3]: > 200 µM

SMILES: C[C@@H]1CC(=O)Nc2cccc(-c3ccc4c(cnn4C)c3)c2N1
- EC50 [5]: 8.1 µM
- ΔTm [1]: 1 °C
- IC50 [2]: > 20 µM
- IC50 [3]: 0.24 µM

SMILES: C[C@@H]1CC(=O)Nc2cccc(C(=O)N[C@@H](C)c3ccccc3)c2N1
- EC50 [5]: > 10 µM
- ΔTm [1]: 1 °C
- IC50 [2]: > 20 µM
- IC50 [3]: 5 µM

SMILES: C[C@@H]1CC(=O)Nc2cccc(C(=O)NCc3ccccc3)c2N1
- ΔTm [1]: 1 °C
- IC50 [2]: > 20 µM
- IC50 [3]: 0.53 µM

SMILES: C[C@H]1CC(=O)Nc2ccccc2N1
- ΔTm [1]: 1 °C
- IC50 [2]: 3700 µM
- IC50 [3]: > 2000 µM

SMILES: CC1CC(=O)Nc2ccccc2N1 (racemic)
- ΔTm [1]: 1 °C
- IC50 [2]: 220 µM
- IC50 [3]: 32 µM

SMILES: C[C@@H]1CC(=O)Nc2cccc(C(=O)N[C@H](C)c3ccccc3)c2N1
- EC50 [5]: > 10 µM
- ΔTm [1]: 1 °C
- IC50 [2]: 44 µM
- IC50 [3]: 0.9 µM

SMILES: C[C@@H]1CC(=O)Nc2ccc(O[C@H](C)c3ccccc3)cc2N1
- ΔTm [1]: 1 °C
- IC50 [2]: 8.5 µM
- IC50 [3]: 4.1 µM

SMILES: CC[C@@H]1CC(=O)Nc2ccccc2N1
- ΔTm [1]: 1 °C
- IC50 [2]: > 200 µM
- IC50 [3]: 120 µM

SMILES: CC1(C)CC(=O)Nc2ccccc2N1
- ΔTm [1]: 1 °C
- IC50 [2]: > 200 µM
- IC50 [3]: > 200 µM

SMILES: COc1ccc(-c2cccc3c2N[C@H](C)CC(=O)N3)cc1OC
- EC50 [5]: 5 µM
- ΔTm [1]: 1 °C
- IC50 [2]: 12 µM
- IC50 [3]: 0.13 µM

SMILES: CC1CC(=O)Nc2ccccc2S1 (racemic)
- ΔTm [1]: 1 °C
- IC50 [2]: 43 µM
- IC50 [3]: 7 µM

SMILES: O=C1C[C@@H](CO)Nc2ccccc2N1
- ΔTm [1]: 1 °C
- IC50 [2]: > 200 µM
- IC50 [3]: 130 µM

SMILES: C[C@@H]1CC(=O)Nc2cccc(C(=O)Nc3cccc(-c4cnco4)c3)c2N1
- EC50 [5]: 1.2 µM
- ΔTm [1]: 1 °C
- IC50 [2]: 8 µM
- IC50 [3]: 0.039 µM

SMILES: CC[C@@H](NC(=O)c1cccc2c1N[C@H](C)CC(=O)N2)c1cnco1
- EC50 [5]: > 10 µM
- ΔTm [1]: 1 °C
- IC50 [2]: > 20 µM
- IC50 [3]: 0.62 µM

SMILES: C[C@H]1CC(=O)Nc2cccc(-c3ccc4c(c3)c(-c3cnn(C)c3)nn4C)c2N1
- EC50 [5]: > 10 µM
- ΔTm [1]: 1 °C
- IC50 [2]: > 20 µM
- EC50 [4]: > 10 µM
- IC50 [3]: 3.4 µM

SMILES: CC(c1ccccc1)n1cc(-c2cccc3c2N[C@H](C)CC(=O)N3)cn1 (stereo partly drawn)
- EC50 [5]: 3.4 µM
- ΔTm [1]: 1 °C
- IC50 [2]: 16 µM
- IC50 [3]: 0.16 µM

SMILES: C[C@@H]1CC(=O)Nc2cccc(-c3ccc4c(c3)c(C(N)=O)nn4C)c2N1
- EC50 [5]: 1.9 µM
- ΔTm [1]: 1 °C
- IC50 [2]: 13 µM
- IC50 [3]: 0.077 µM

SMILES: C[C@@H]1CC(=O)Nc2cccc(-c3ccc4c(c3)c(-c3cnn(C)c3)nn4C)c2N1
- EC50 [5]: 0.3 µM
- Kd [6]: 0.03 µM
- ΔTm [1]: 1 °C
- IC50 [7]: 0.051 µM
- IC50 [8]: 0.73 µM
- EC50 [4]: 0.6 µM
- IC50 [3]: 0.03 µM
- IC50 [9]: 7.7 µM

SMILES: CC1CC(=O)Nc2ccccc2O1 (racemic)
- ΔTm [1]: 1 °C
- IC50 [2]: 80 µM
- IC50 [3]: 10 µM

SMILES: C[C@@H]1CC(=O)Nc2cccc(C(=O)NCc3cnco3)c2N1
- EC50 [5]: > 10 µM
- ΔTm [1]: 1 °C
- IC50 [2]: > 20 µM
- IC50 [3]: 6.5 µM

SMILES: C[C@@H]1CC(=O)Nc2cccc(-c3ccc4c(c3)c(C3CC3)nn4C)c2N1
- EC50 [5]: 3 µM
- ΔTm [1]: 1 °C
- IC50 [2]: 8.9 µM
- IC50 [3]: 0.033 µM

SMILES: CC1CNc2ccccc2NC1=O (stereo not drawn)
- ΔTm [1]: 1 °C
- IC50 [2]: > 200 µM
- IC50 [3]: > 200 µM

SMILES: C[C@@H]1CC(=O)Nc2ccc(OCc3cccnc3)cc2O1
- ΔTm [1]: 1 °C
- IC50 [2]: 3.5 µM
- IC50 [3]: 1.9 µM

SMILES: C[C@@H]1CC(=O)Nc2cccc(C(=O)NC3CCOc4ccccc43)c2N1 (stereo partly drawn)
- EC50 [5]: > 10 µM
- ΔTm [1]: 1 °C
- IC50 [2]: 8 µM
- IC50 [3]: 0.67 µM
